≈ marks a conversion by molar mass, not a printed value.
Assays:
H. influenzae PRC2 = assay: Test 1: Anti-Microbial Activities (MIC); assay type: cell-based; settings: Sensitivity Disk agar-N+5% Horse blood, inoculants 10^6 CFU/ml; for MIC: Haemophilus influenzae, read-out: minimum inhibiting concentrations (MIC)
Description: (§1) The minimum inhibiting concentrations (MIC, μg/ml) of the compounds according to the present invention to various pathogenic bacteria was measured in accordance with the method described in CHEMOTHERAPY, vol. 16, No. 1,99, 1968. The culture medium for measurement was Sensitivity Disk agar-N+5% Horse blood, and the amount of inoculants was 10^6 CFU/ml.

E. coli NIHJ JC-2 = assay: Test 1: Anti-Microbial Activities (MIC); assay type: cell-based; settings: inoculants 10^6 CFU/ml; for MIC: Escherichia coli, NIHJJC2, Sensitivity Disk agar-N+5% Horse blood, read-out: minimum inhibiting concentrations (MIC)
Description: as §1

K. pneumoniae PCI602 = assay: Test 1: Anti-Microbial Activities (MIC); assay type: cell-based; settings: Sensitivity Disk agar-N+5% Horse blood, inoculants 10^6 CFU/ml; for MIC: Klebsiella pneumoniae, read-out: minimum inhibiting concentrations (MIC)
Description: as §1

S. pneumoniae PRC9 = assay: Test 1: Anti-Microbial Activities (MIC); assay type: cell-based; settings: S. pneumoniae PRC9, penicillin-hyperresistant strain (PRSP), Sensitivity Disk agar-N+5% Horse blood, inoculants 10^6 CFU/ml; for MIC: Streptococcus pneumoniae, read-out: minimum inhibiting concentrations (MIC)
Description: as §1

E. faecalis W-73 = assay: Test 1: Anti-Microbial Activities (MIC); assay type: cell-based; settings: inoculants 10^6 CFU/ml; for MIC: Enterococcus faecalis, W73, Sensitivity Disk agar-N+5% Horse blood, read-out: minimum inhibiting concentrations (MIC)
Description: as §1

M. catarrhalis W-0500 = assay: Test 1: Anti-Microbial Activities (MIC); assay type: cell-based; settings: inoculants 10^6 CFU/ml; for MIC: Moraxella catarrhalis, W0500, Sensitivity Disk agar-N+5% Horse blood, read-out: minimum inhibiting concentrations (MIC)
Description: as §1

P. vulgaris GN7919 = assay: Test 1: Anti-Microbial Activities (MIC); assay type: cell-based; settings: Sensitivity Disk agar-N+5% Horse blood, inoculants 10^6 CFU/ml; for MIC: Proteus vulgaris, read-out: minimum inhibiting concentrations (MIC)
Description: as §1

S. aureus M126 = assay: Test 1: Anti-Microbial Activities (MIC); assay type: cell-based; settings: S. aureus M126, methicillin-hyperresistant strain (MRSA), Sensitivity Disk agar-N+5% Horse blood, inoculants 10^6 CFU/ml; for MIC: Staphylococcus aureus, read-out: minimum inhibiting concentrations (MIC)
Description: as §1

S. epidermidis ATCC14990 = assay: Test 1: Anti-Microbial Activities (MIC); assay type: cell-based; settings: Sensitivity Disk agar-N+5% Horse blood, inoculants 10^6 CFU/ml; for MIC: Staphylococcus epidermidis, read-out: minimum inhibiting concentrations (MIC)
Description: as §1

S. aureus 209P JC-1 = assay: Test 1: Anti-Microbial Activities (MIC); assay type: cell-based; settings: Sensitivity Disk agar-N+5% Horse blood, inoculants 10^6 CFU/ml; for MIC: Staphylococcus aureus, read-out: minimum inhibiting concentrations (MIC)
Description: as §1

E. hirae ATCC8043 = assay: Test 1: Anti-Microbial Activities (MIC); assay type: cell-based; settings: Sensitivity Disk agar-N+5% Horse blood, inoculants 10^6 CFU/ml; for MIC: Enterococcus hirae, read-out: minimum inhibiting concentrations (MIC)
Description: as §1

H. influenzae PRC44 = assay: Test 1: Anti-Microbial Activities (MIC); assay type: cell-based; settings: Sensitivity Disk agar-N+5% Horse blood, inoculants 10^6 CFU/ml; for MIC: Haemophilus influenzae, read-out: minimum inhibiting concentrations (MIC)
Description: as §1

C. freundii GN346 = assay: Test 1: Anti-Microbial Activities (MIC); assay type: cell-based; settings: Sensitivity Disk agar-N+5% Horse blood, inoculants 10^6 CFU/ml; for MIC: Citrobacter freundii, read-out: minimum inhibiting concentrations (MIC)
Description: as §1

mouse DHP-I = target: T1, mouse DHP-I (Mus musculus, UniProt P31428); assay: Test 2: stability against DHP-I (mouse); settings: for residual amounts (%) after 3 hours: partly purified Mouse DHP-I, 100 μg (titer)/ml, 37° C., HPLC
T1 sequence (P31428 17-384): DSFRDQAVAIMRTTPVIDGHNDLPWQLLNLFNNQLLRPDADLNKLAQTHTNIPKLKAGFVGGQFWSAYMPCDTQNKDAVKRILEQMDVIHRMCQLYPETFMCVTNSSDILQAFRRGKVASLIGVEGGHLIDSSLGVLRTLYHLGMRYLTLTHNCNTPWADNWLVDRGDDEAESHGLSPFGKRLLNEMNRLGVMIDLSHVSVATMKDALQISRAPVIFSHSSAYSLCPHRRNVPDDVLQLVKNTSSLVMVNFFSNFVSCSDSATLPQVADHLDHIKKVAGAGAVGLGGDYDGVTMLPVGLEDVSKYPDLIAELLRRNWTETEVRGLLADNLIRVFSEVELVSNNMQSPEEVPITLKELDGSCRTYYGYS

porcine renal DHP-I = target: T2, porcine renal DHP-I (Sus scrofa, UniProt P22412); assay: Test 2: stability against DHP-I (porcine); settings: partly purified Porcine DHP-I, 100 μg (titer)/ml, 37° C., HPLC
T2 sequence (P22412 17-384): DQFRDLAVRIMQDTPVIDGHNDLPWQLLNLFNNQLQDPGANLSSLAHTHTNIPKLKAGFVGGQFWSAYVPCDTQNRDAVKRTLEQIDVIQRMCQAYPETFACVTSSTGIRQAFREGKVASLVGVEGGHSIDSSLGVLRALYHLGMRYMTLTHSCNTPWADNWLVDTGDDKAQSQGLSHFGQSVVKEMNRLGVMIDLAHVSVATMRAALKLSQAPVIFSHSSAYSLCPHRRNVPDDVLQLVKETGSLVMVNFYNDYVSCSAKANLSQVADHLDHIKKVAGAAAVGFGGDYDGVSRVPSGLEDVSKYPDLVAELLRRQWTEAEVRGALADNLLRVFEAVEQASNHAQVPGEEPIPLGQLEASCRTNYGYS

[1] = Test 5: Acute Toxicity (i.v.); assay type: in vivo, mice (ICR, male); settings: mice, 2,000 mg/kg i.v.
Description: The compounds of Examples 44, 62, 88, and 111 were tested again in the same manner as the above provided that cilastatin sodium was co-administered.

[2] = cilastatin sodium co-administered
[3] = Sensitivity Disk agar-N+5% Horse blood

Row | Molecule | MIC (H. influenzae PRC2) [µg/mL] | MIC (E. coli NIHJ JC-2) [µg/mL] | MIC (K. pneumoniae PCI602) [µg/mL] | MIC (S. pneumoniae PRC9) [µg/mL] | MIC (E. faecalis W-73) [µg/mL] | MIC (M. catarrhalis W-0500) [µg/mL] | MIC (P. vulgaris GN7919) [µg/mL] | MIC (S. aureus M126) [µg/mL] | MIC (S. epidermidis ATCC14990) [µg/mL] | MIC (S. aureus 209P JC-1) [µg/mL] | MIC (E. hirae ATCC8043) [µg/mL] | MIC (H. influenzae PRC44) [µg/mL] | MIC (C. freundii GN346) [µg/mL] | residual amounts (%) after 3 hours (mouse DHP-I) [%] | residual amounts (%) after 3 hours (porcine renal DHP-I) [%] | further results
1 | C[C@@H](O)[C@H]1C(=O)N2C(C(=O)O)=C(SCCN=CN)C[C@H]12 [Compound A, imipenem, reference compound] | 0.78 (≈ 2.61 µM) | 0.1 (≈ 0.334 µM) | 0.2 (≈ 0.668 µM) | 0.2 (≈ 0.668 µM) | 0.78 (≈ 2.61 µM) | 0.05 (≈ 0.167 µM) | 0.1 (≈ 0.334 µM) | 25 (≈ 83.5 µM) | < 0.025 | < 0.025 | 0.78 (≈ 2.61 µM) | 12.5 (≈ 41.8 µM) | 0.2 (≈ 0.668 µM) | 14 | <0.3 | 
2 | C[C@@H](O)[C@H]1C(=O)N2C(C(=O)O)=C(S[C@@H]3CN[C@H](C(=O)N(C)C)C3)[C@H](C)[C@H]12 [Compound C, meropenem, reference compound] |  |  |  |  |  |  |  |  |  |  |  |  |  | 8.5 | 41 | 
3 | CC(=O)c1nc(C)n2cc(C3=C(C(=O)[O-])N4C(=O)[C@H]([C@@H](C)O)[C@H]4[C@H]3C)sc12.[Na+] [Example 19, Sodium (1S,5R,6S)-2-(7-Acetyl-5-methylimidazo[5,1-b]thiazol-2-yl)-6-((1R)-1-hydroxyethyl)-1-methyl-1-carbapen-2-em-3-carboxylate] |  |  |  |  |  |  |  |  |  |  |  |  |  | 45 | 77 | 
4 | C[C@@H](O)[C@H]1C(=O)N2C(C(=O)[O-])=C(c3cn4cnc([S+](C)[O-])c4s3)[C@H](C)[C@H]12.[Na+] (stereo partly drawn) [Example 26, Sodium (1S,5R,6S)-6-((1R)-1-Hydroxyethyl)-2-(7-methanesulfinylimidazo[5,1-b]thiazol-2-yl)-1-methyl-1-carbapen-2-em-3-carboxylate] | < 0.025 | 0.05 | 0.1 | 0.1 | 0.39 | 0.05 | 0.2 | 6.25 | < 0.025 | < 0.025 | 0.78 | 0.05 | 1.56 | 11 | 44 | 
5 | CCC(=O)c1ncn2cc(C3=C(C(=O)[O-])N4C(=O)[C@H]([C@@H](C)O)[C@H]4C3)sc12.[Na+] [Example 27, Sodium (5R,6S)-6-((1R)-1-Hydroxyethyl)-2-(7-propionylimidazo[5,1-b]thiazol-2-yl)-1-carbapen-2-em-3-carboxylate] | < 0.025 | 0.2 | 0.1 | 0.05 | 0.1 | < 0.025 | 0.2 | 0.78 | 0.05 | 0.05 | 0.39 | 0.05 | 0.39 | 1.2 | 38 | 
6 | Cc1nc(S(C)(=O)=O)c2sc(C3=C(C(=O)[O-])N4C(=O)[C@H]([C@@H](C)O)[C@H]4[C@H]3C)cn12.[Na+] [Example 44, Sodium (1S,5R,6S)-6-((1R)-1-Hydroxyethyl)-2-(7-methanesulfonyl-5-methylimidazo[5,1-b]thiazol-2-yl)-1-methyl-1-carbapen-2-em-3-carboxylate] | < 0.025 | 0.78 | 1.56 | 0.1 | 0.78 | < 0.025 | 0.78 | 3.13 | 0.05 | 0.05 | 0.78 | 0.1 | 12.5 |  | 100 | survival (acute toxicity) [1]: All of the animal survived; survival (acute toxicity) [1, 2]: All of the animal survived
7 | C[C@@H](O)[C@H]1C(=O)N2C(C(=O)[O-])=C(c3cn4cnc(S(C)(=O)=O)c4s3)[C@H](C)[C@H]12.[Na+] [Example 62, Sodium (1S,5R,6S)-6-((1R)-1-Hydroxyethyl)-2-(7-methanesulfonylimidazo[5,1-b]thiazol-2-yl)-1-methyl-1-carbapen-2-em-3-carboxylate] | < 0.025 | 0.05 | 0.05 | 0.05 | 0.2 | < 0.025 | 0.1 | 1.56 | < 0.025 | < 0.025 | 0.39 | 0.05 | 1.56 | 1.5 | 64 | stability to mouse DHP-I (in words) (mouse DHP-I): instability; survival (acute toxicity) [1]: All of the animal survived; survival (acute toxicity) [1, 2]: All of the animal survived
8 | C[C@@H](O)[C@H]1C(=O)N2C(C(=O)[O-])=C(c3cn4cnc(C(=O)CO)c4s3)[C@H](C)[C@H]12.[Na+] [Example 71, Sodium (1S,5R,6S)-2-(7-Hydroxyacetylimidazo[5,1-b]thiazol-2-yl)-6-((1R)-1-hydroxyethyl)-1-methyl-1-carbapen-2-em-3-carboxylate] | < 0.025 | < 0.025 | < 0.025 | 0.1 | 0.39 | < 0.025 | < 0.025 | 3.13 | < 0.025 | < 0.025 | 0.39 | 0.05 | 0.39 | <0.1 | 33 | 
9 | (1R,5S,6S)-6-((1R)-1-hydroxyethyl)-1-methyl-2-[(3S,5S)-5-(6-methylimidazo[5,1-b]thiazolium-2-yl)methylpyrrolidin-3-yl]thiocarbapen-2-em-3-carboxylic acid iodide [Compound B, reference compound] |  |  |  |  |  |  |  |  |  |  |  |  |  |  |  | minimum inhibiting concentrations (MIC) (H. influenzae PRC2): 0.10 µg/mL; minimum inhibiting concentrations (MIC) (E. coli NIHJ JC-2; [3]): 0.05 µg/mL; minimum inhibiting concentrations (MIC) (K. pneumoniae PCI602): 0.10 µg/mL; minimum inhibiting concentrations (MIC) (S. pneumoniae PRC9): 0.39 µg/mL; minimum inhibiting concentrations (MIC) (E. faecalis W-73; [3]): 3.13 µg/mL; minimum inhibiting concentrations (MIC) (M. catarrhalis W-0500; [3]): <0.025 µg/mL; minimum inhibiting concentrations (MIC) (P. vulgaris GN7919): 0.10 µg/mL; minimum inhibiting concentrations (MIC) (S. aureus M126): 6.25 µg/mL; minimum inhibiting concentrations (MIC) (S. epidermidis ATCC14990): 0.05 µg/mL; minimum inhibiting concentrations (MIC) (S. aureus 209P JC-1): <0.025 µg/mL; minimum inhibiting concentrations (MIC) (E. hirae ATCC8043): 1.56 µg/mL; minimum inhibiting concentrations (MIC) (H. influenzae PRC44): 0.78 µg/mL; minimum inhibiting concentrations (MIC) (C. freundii GN346): 0.10 µg/mL
